Laboratory results: paper PMC5750218, “Protein-inspired antibiotics active against vancomycin- and daptomycin-resistant bacteria” (Nature Communications, 2018)
Values after ≈ are worked out from the molar mass of the structure shown. Like-named read-outs stand apart in the source and are kept apart here.

Columns and labels:
Haemolysis assay = type: cell-based; conditions: human, read-out: % Human Whole Blood Haemolysis
[1] = 37 °C, 20 µM
Experimental: Briefly, test compounds (20 μM) were prepared from a 0.2 mM H2O stock solution (40 μL in 400 μL assay volume) except eucatropine, which was 300 μg mL^−1 in 100% DMSO (10 μL in 400 μL assay volume equivalent to 23 μM). The precipitating solution was prepared by adding 5 μL of 10 mM carbutamide in DMSO to 100 mL acetonitrile (final concentration: 135.5 ng mL^−1 or 0.5 μM carbutamide). The human plasma sample (pooled normal human plasma sodium heparin anticoagulant, 2 µL, Cat No.: [sequence], BioReclamation) and phosphate-buffer saline (PBS, pH 7.4 isotonic) were pre-heated at 37 °C for 30 min. 40 μL of test compounds (0.2 mM) were added to protein-low binding Eppendorf tubes, 160 μL of buffer was added, and the mixture was vortexed. For eucatropine, 10 μL of eucatropine (300 μg mL^−1) was added to a protein-low binding Eppendorf tube, 190 μL of buffer was added, and the mixture was vortexed. In each case, 200 μL of plasma was added and the resultant mixture vortexed. For the initial time point (reaction time t = 0 h), 50 μL of sample was immediately transferred into a protein-low binding Eppendorf tube and quenched with 150 μL of the ice-cold precipitating solution, followed by vortexing and subsequent storage at 4 °C. For the remaining time points, the plasma solution was incubated and shaken (150 rpm) at 37 °C. 50 μL aliquots were collected at time points of 0, 1, 3, 6 and 24 h and quenched with 150 μL the ice-cold precipitating solution. All samples were placed in a 4 °C fridge for 30 min then centrifuged at 14,000 × g for 8 min at 4 °C. The supernatant (100 μL) was transferred to a glass vial insert and stored at 4 °C until LC-MS/MS analysis. The percentage of test compounds remaining at the individual time points relative to sample at time point 0 h were reported.

[2] = test system: Bacillus subtilis ATCC 6633; test: microbe, parasite or virus in culture; type: cell-based; conditions: for MIC: Bacillus subtilis; for Molar excess of Ac2Kaa ligand required to antagonise antibacterial activity: [ligand]/[antibiotic], B. subtilis ATCC 6633, 24 h
S. aureus ATCC 43300 = test: Membrane depolarisation assay (diSC3(5)); type: cell-based, Staphylococcus aureus; conditions: 16 µg mL^−1, 30 min, MRSA ATCC 43300
Experimental: Antibiotic-induced bacterial cytoplasmic membrane depolarisation was determined using the fluorescent dye 3,3-dipropylthiacarbocyanine diSC3(5) (Sigma Aldrich, Australia) as previously described. Briefly, early exponential phase cells were pelleted and washed twice in 10 mM HEPES buffer (pH 7.4) containing 50 µg mL^−1 of CaCl2 and 5 mM Glucose, and then re-suspended in the same buffer (2 × 10^8 CFU mL^−1). diSC3(5) was added to a final concentration of 1.5 µM and incubated at room temperature in the dark to enable dye uptake and fluorescence quenching. After 30 min, cells were diluted 50-fold in assay buffer and 45 µL of cells were added to a 384-well black walled polystyrene plate (Corning, CLS3573) (Note: NBS plates were not employed, and no polysorbate-80 was added to avoid potential effects on membrane permeability, or interference with fluorescence as previously reported. The MICs of compounds in polystyrene plates are listed in Supplementary Table 12). Background data was collected before adding compounds using a Tecan Infinite® m1000 Pro Multi-mode reader (excitation/emission 612/665 nm) to ensure fluorescence quenching. Compounds were added to a final concentration of 16 µg mL^−1 and fluorescence was monitored for 30 min. Data were corrected by subtraction of background response (diSC3(5) in the presence of untreated cells, no compound). […] Each sample was tested in quadruplicate and independent assays were performed twice showing similar results. Data were analysed and presented using Prism software.

[3] = In vivo pharmacokinetics in mice; conditions: mouse; for concentration at […]: 0.250 h; for concentration at 0.5 h: 0.500 h; for MRT inf: read-out: MRT0-inf; for MRT last: read-out: MRT0-last
Experimental: Performed by WuXi AppTec (Shanghai) Co., Ltd. Seven to 9-week-old male CD1 mice (SLAC Laboratory Animal Co. Ltd., Shanghai, China) weighing 25–35 g were acclimated for approximate 3 days before being used in the study. Animals are group housed during acclimation and in-life study in compliance with the National Research Council 'Guide for the Care and Use of Laboratory Animals.' The animal room environment is controlled (target conditions: temperature 18 to 26 °C, relative humidity 30–70%, 12 h artificial light and 12 h dark) with temperature and relative humidity monitored daily. Animals were deprived of food for approximately 16 h before formulation administration then allowed access to Certified Rodent Diet (Catalogue # M-01F, Shanghai SLAC Laboratory Animal Co. Ltd.) ad libitum 4 h post dosing. Water was autoclaved before being provided to the animals ad libitum. Formulations of compounds were prepared on the morning of the dosing day. The formulation for the IV group was filtered with filter of 0.22 μm before being dosed to animals. After dose formulation preparation, duplicate 50 μL aliquots were removed from each dose formulation for use in dose validation. For each compound studied, three mice were dosed intravenously (IV) administered to each animal via tail vein per facility SOPs using test article formulated in deionised water at 1 mg mL^−1 with a dose volume of 2 mg mL^−1, providing a dose of 2 mg mL^−1 (based on free base concentration). An additional three mice were dosed subcutaneously (SC) administered to each animal via subcutaneous bolus on each animals’ back per facility SOPs using test article formulated in deionised water at 2 mg mL^−1 with a dose volume of 5 mg mL^−1, providing a dose of 10 mg mL^−1. All animals were killed at the last study time point (100% CO2 was introduced into the animal box).
Plasma samples were collected as the following target times after each dose administration: IV Sampling Time points (hours post dosing): 0, 0.083, 0.25, 0.5, 1, 2, 4, 8 and 24. SC Sampling Time points (hours post dosing): 0, 0.25, 0.5, 1, 2, 4, 8 and 24. Approximately 30 μL blood was obtained via submandibular or saphenous vein for the first several time points. For the last time point, samples were collected via cardiac puncture while the mouse was under anaesthesia. All blood samples were transferred into pre-chilled plastic microcentrifuge tubes containing 2 μL of ethylenediaminetetraacetic acid dipotassium salt (K2-EDTA) (0.5 M) as anticoagulant and placed on wet ice until centrifugation. Harvested blood samples were centrifuged within 30 min of collection at 7000 rpm (8546 × g) 4 °C for about 10 min. After centrifugation, plasma was transferred into another pre-labelled and pre-chilled polypropylene microcentrifuge tubes, then quick-frozen over dry ice and stored at −70 ± 10 °C until LC/MSMS analysis.
LC-MS/MS methods for the quantitative determination of the test article in mouse plasma were developed with an internal standard. Benchtop stability of the compound in mouse plasma was determined at mid QC concentrations in triplicate at 0, 2 h at room temperature. The stability was determined using mean peak area ratio of T2/T0 sample. If the mean peak area ratio is within 80%~120%, the test article in the plasma is considered stable for 2 h at room temperature. […] A set of QC samples consists of three concentration levels (low, middle and high). The sample analysis was performed concurrently with a set of calibration standards and two sets of QC samples using the LC-MS/MS method.
Plasma concentration vs. time data from individual animals was analysed by WinNonLin non-compartmental model (Phoenix WinNonlin 6.2.1, Pharsight, Mountain View, CA). Pharmacokinetic parameter C 0, T ½, CL, Vdss, C max, T max, AUC0-last, AUC0-inf, %F, MRT0-last, MRT0-inf and graphs of plasma concentration vs. time profile were derived.

[4] = test system: Methicillin-sensitive S. aureus ATCC 29213; test: microbe, parasite or virus in culture; type: cell-based, Staphylococcus aureus; conditions: Staphylococcus aureus, ATCC 29213 / MSSA
Experimental: Antimicrobial activity of compounds was tested against a number of bacterial strains by broth microdilution (BMD) assay with MIC determination, including S. aureus (MSSA ATCC® 29213™, MRSA ATCC® 43300™, VISA NARSA NRS1, VISA NARSA NRS4), Streptococcus pneumoniae (MDR ATCC® 700677™) and Enterococcus faecium (MDR VanA ATCC® 51559™). ATCC strains were sourced from the American Type Culture Collection and NRS strains from NARSA (Network on Antimicrobial Resistance in S. aureus) via BEI Resources (www.beiresources.org). All compounds were prepared to 160 µg mL^−1 solution in water from a stock solution of 1 mM concentration.
[…] […] Standards ranged from 64 to 0.03 µg mL^−1 and compounds from 8 to 0.003 µg mL^−1 with final assay volumes of 100 µL per well. Gram-positive bacteria were cultured in Mueller Hinton broth (MHB) (Bactolaboratories, Cat. no. 211443) at 37 °C overnight. A sample of each culture was then diluted 40-fold in fresh MHB and incubated at 37 °C for 2–3 h. The resultant mid-log phase cultures were added to the compound-containing 96-well plates to give a final cell density of 5 × 10^5 colony forming unit (CFU) mL^−1. All the plates were covered and incubated at 37 °C for 24 h. MICs were the lowest concentration showing no visible growth.

[5] = male, CD1, plasma, 2 mg/kg IV, read-out: Plasma concentration, Mean IV
[6] = male, CD1, plasma, 10 mg/kg SC, read-out: Plasma concentration, Mean SC
[7] = male, CD1, plasma, IV 2 mg kg-1
[8] = male, CD1, plasma, SC 10 mg kg-1

## CN[C@H](CC(C)C)C(=O)N[C@H]1C(=O)N[C@@H](CC(N)=O)C(=O)N[C@H]2C(=O)N[C@H]3C(=O)N[C@H](C(=O)N[C@H](C(=O)O)c4cc(O)cc(O)c4-c4cc3ccc4O)[C@H](O)c3ccc(c(Cl)c3)Oc3cc2cc(c3O[C@@H]2O[C@H](CO)[C@@H](O)[C@H](O)[C@H]2O[C@H]2C[C@](C)(N)[C@H](O)[C@H](C)O2)Oc2ccc(cc2Cl)[C@H]1O [Compound 1, Vancomycin]
Haemolysis assay; 25 µg mL-1
  hemolysis at 3 h, 25 µg mL-1: 0.1%
Haemolysis assay; 50 µg mL-1
  hemolysis at 3 h, 50 µg mL-1: 0.4%
Haemolysis assay; 100 µg mL-1
  hemolysis at 3 h, 100 µg mL-1: 0.3%
Haemolysis assay; 200 µg mL-1
  hemolysis at 3 h, 200 µg mL-1: 0.8%
Haemolysis assay; 400 µg mL-1
  hemolysis at 3 h, 400 µg mL-1: 0.8%
Haemolysis assay; 800 µg mL-1
  hemolysis at 3 h, 800 µg mL-1: 0.8%
Haemolysis assay; 1600 µg mL-1
  hemolysis at 3 h, 1600 µg mL-1: 1.5%
[1]
  % compound remaining after incubation in 50% human plasma, 0h: 100%
[2]; ATCC6633
  MIC: 0.25 µg/mL (≈ 0.173 µM)
[2]; ATCC6633, read-out: Ac2Kaa concentration required to neutralise MIC activity
  MIC: 6.25 µg/mL (≈ 4.31 µM)
[2]
  Molar excess of Ac2Kaa ligand required to antagonise antibacterial activity: 100
[2]; listed as Vancomycin 1
  Molar excess of Ac2Kaa ligand required to antagonise antibacterial activity: 96
S. aureus ATCC 43300
  Dissipation of membrane potential (diSC3(5) fluorescence): no effect
[3]; male, CD1, plasma, subcutaneous, SC 10 mg kg-1 vs IV 2 mg kg-1
  bioavailability: 70.5%
[3]; male, CD1, plasma, 2 mg/kg IV, 5 min, n=3
  concentration at 5 min: 5790 ng/mL
[3]; [5]
  concentration at […]: 3590 ng/mL
  concentration at 0.5 h: 1980 ng/mL
  concentration at 1 h: 762 ng/mL
  concentration at 2 h: 193 ng/mL
  concentration at 4 h: 27.5 ng/mL
[3]; male, CD1, plasma, 10 mg/kg SC, n=3, read-out: Plasma concentration, Mean SC
  concentration at […]: 10700 ng/mL
[3]; [6]
  concentration at 0.5 h: 9580 ng/mL
  concentration at 1 h: 5200 ng/mL
  concentration at 2 h: 1270 ng/mL
  concentration at 4 h: 137 ng/mL
[3]; male, CD1, plasma, 10 mg/kg SC, 8.00 h
  concentration at 8 h: 6.17 ng/mL
[3]; [7]
  AUC(0-inf): 3240 ng·h/mL
  AUC(0-t): 3210 ng·h/mL
  C0: 7360 ng/mL
  clearance: 10.4 mL/min/kg
  half-life: 38.4 min
  MRT inf: 37.2 min
  MRT last: 35.4 min
[3]; male, CD1, plasma, IV 2 mg kg-1, read-out: Vdss
  Vd: 0.39 L/kg
[3]; [8]
  AUC(0-inf): 11400 ng·h/mL
  AUC(0-t): 11400 ng·h/mL
  Cmax: 10700 ng/mL
  Tmax: 15 min
  half-life: 48 min
  MRT inf: 59.4 min
  MRT last: 58.8 min
[3]; IV 2 mg kg-1
  AUC0-inf/AUC0-last: 101%
  Tlast: 4 h
[3]; SC 10 mg kg-1
  AUC0-inf/AUC0-last: 100%
  Tlast: 8 h
[4]; read-out: MIC MSSA
  MIC: 1 µg/mL (≈ 0.69 µM)
[4]; read-out: MIC S. aureus ATCC29213 MSSA, NBS
  MIC: 1 µg/mL (≈ 0.69 µM)
[4]; read-out: MIC S. aureus ATCC29213 MSSA, PP
  MIC: 1 µg/mL (≈ 0.69 µM)
[4]; read-out: MIC S. aureus ATCC29213 MSSA, PS
  MIC: 2 µg/mL (≈ 1.38 µM)
[4]; read-out: MIC S. aureus ATCC29213 MSSA, PS+P-80
  MIC: 1 to 2 µg/mL (≈ 0.69 to 1.38 µM)
